4 molecules from article PMC12235690 (Journal of Proteome Research, 2025) can be followed below.

Each structure is given as a SMILES string. Numbered stars: 1 amine (or outer) side, 2 acyl side, 3 side chain; on linkers, the order of the positions; unused ones are H or OH. Square brackets hold non-standard residues; d marks the D form. Side chains are listed from the residue outwards. Peptide text beside a SMILES is read from it. * marks the point of attachment. Biotin = O=C1N[C@H]2[C@H](CS[C@H]2CCCCC(=O)*)N1; γGlu = O=C(O)[C@H](CCC(=O)[*:2])N[*:1]; Palmitoyl = CCCCCCCCCCCCCCCC(=O)*; PhLac = O=C(O)[C@@H](O)Cc1ccccc1; PEG4 = NCCOCCOCCOCCOCCC(=O)O

The target in test [1] is T1, GCGR (Homo sapiens, UniProt P47871). In words: GCGR cAMP accumulation, antagonist mode, native and biotinylated peptides. It is filed as cell-based. The following applies: HTRF, HEK Freestyle cells, arithmetic mean, n=3. Here is the method: HEK Freestyle cells (ThermoFisher Scientific, #R79007) seeded in suspension at a density of 250,000 cells/mL were transiently transfected with indicated receptor constructs using Fugene-6 reagent (Promega, #E2691). After 48 h, cells were pelleted and resuspended in assay buffer (DMEM, #Gibco 31053) containing 0.1% casein. Cells were then added at 1000 cells/well to 384-well white microplates (Costar, #3570) containing a range of agonist concentrations prepared via acoustic direct dilution in assay buffer containing 250 μM IBMX (total reaction volume of 20 μL), followed by incubation at 37 °C for 30 min. Cells were then lysed via sequential addition of d2-labeled cAMP competitor conjugate and cryptate-conjugated detection antibody (Revity, #62AM4PEC), then incubated for 1 h at room temperature with subsequent quantification of time-resolved fluorescence resonance energy transfer using an Envision plate reader and calibration to external synthetic cAMP standards in a parallel processed plate. Normalized percent values were fit to the 4-parameter logistic model using GraphPad Prism 10.1.2.
Figure S1. Enrichment of GCGR using biotinylated peptide ligands and bottom-up proteomic analysis of C-tail phosphorylation. A-B) GCGR cAMP accumulation was measured in (A) agonist mode and (B) antagonist mode using native and biotinylated peptides. Summary statistics for pharmacological […]
In general terms: Changes in cAMP serve as a functional read-out for many G protein-coupled receptors.

Test [2] deals with T1, GCGR. In words: GCGR cAMP accumulation, agonist mode, native and biotinylated peptides. The class given is cell-based. Particulars: read-out: cAMP Emax Mean.
Procedure: Figure S1. […] A-B) GCGR cAMP accumulation was measured in (A) agonist mode and (B) antagonist mode using native and biotinylated peptides.
In the next test the target is GLP-1R S442A (Homo sapiens, UniProt P43220, S442A). Put plainly: cell-based. Particulars: read-out: cAMP Emax Mean.
For test [3], the target named is GLP-1R 3S→A (S442A/S444A/S445A) (Homo sapiens, UniProt P43220, S442A/S444A/S445A). Put plainly: cell-based. The following applies: read-out: cAMP Emax Mean.
The next test deals with GLP-1R_TEV_FLAG C-tail (Homo sapiens, UniProt P43220). The following applies: WT GLP-1R_TEV C-tail; 1 μM ligand, 10 min 37 °C, FreeStyle 293 cells, LC-PRM, relative to DMSO.
The next test has as its target GLP-1R WT (Homo sapiens, UniProt P43220). In words: cell-based. The following applies: read-out: cAMP Emax Mean. As to the method: (§1) Transfection for pharmacology experiments was conducted as previously described using FuGENE 6 (Promega, #E2691). […] Subsequently, 240 μL of room-temperature FuGENE 6 (Promega, #E2691) was added to the medium, mixed by inversion, and allowed to rest at room temperature for 5 min. 40 μg of the plasmid of interest was added to the FuGENE 6 containing medium, mixed by inversion, and allowed to rest at room temperature for 15–20 min.
(§2) HEK Freestyle cells (ThermoFisher Scientific, #R79007) seeded in suspension at a density of 250,000 cells/mL were transiently transfected with indicated receptor constructs using Fugene-6 reagent (Promega, #E2691). […] Cells were then lysed via sequential addition of d2-labeled cAMP competitor conjugate and cryptate-conjugated detection antibody (Revity, #62AM4PEC), then incubated for 1 h at room temperature with subsequent quantification of time-resolved fluorescence resonance energy transfer using an Envision plate reader and calibration to external synthetic cAMP standards in a parallel processed plate.

The target in another test is GLP-1R S445A (Homo sapiens, UniProt P43220, S445A). In words: cell-based. Particulars: read-out: cAMP Emax Mean. As to the method:
as §1, §2

The target of a further test is GLP-1R S444A (Homo sapiens, UniProt P43220, S444A). In words: cell-based. The following applies: read-out: cAMP Emax Mean.
GLP-1R S444A, sequence (P43220 24-463 S444A): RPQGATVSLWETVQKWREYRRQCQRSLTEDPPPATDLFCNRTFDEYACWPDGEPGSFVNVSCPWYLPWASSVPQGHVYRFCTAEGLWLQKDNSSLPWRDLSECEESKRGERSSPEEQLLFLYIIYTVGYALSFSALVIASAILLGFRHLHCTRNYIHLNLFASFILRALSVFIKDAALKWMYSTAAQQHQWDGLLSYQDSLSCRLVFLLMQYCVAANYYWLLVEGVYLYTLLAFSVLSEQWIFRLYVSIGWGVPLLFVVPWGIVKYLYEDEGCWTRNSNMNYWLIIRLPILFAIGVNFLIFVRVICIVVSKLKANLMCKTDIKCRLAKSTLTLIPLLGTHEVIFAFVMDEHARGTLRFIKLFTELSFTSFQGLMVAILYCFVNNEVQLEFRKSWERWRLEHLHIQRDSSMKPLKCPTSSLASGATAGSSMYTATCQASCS

T1 sequence (P47871 26-477): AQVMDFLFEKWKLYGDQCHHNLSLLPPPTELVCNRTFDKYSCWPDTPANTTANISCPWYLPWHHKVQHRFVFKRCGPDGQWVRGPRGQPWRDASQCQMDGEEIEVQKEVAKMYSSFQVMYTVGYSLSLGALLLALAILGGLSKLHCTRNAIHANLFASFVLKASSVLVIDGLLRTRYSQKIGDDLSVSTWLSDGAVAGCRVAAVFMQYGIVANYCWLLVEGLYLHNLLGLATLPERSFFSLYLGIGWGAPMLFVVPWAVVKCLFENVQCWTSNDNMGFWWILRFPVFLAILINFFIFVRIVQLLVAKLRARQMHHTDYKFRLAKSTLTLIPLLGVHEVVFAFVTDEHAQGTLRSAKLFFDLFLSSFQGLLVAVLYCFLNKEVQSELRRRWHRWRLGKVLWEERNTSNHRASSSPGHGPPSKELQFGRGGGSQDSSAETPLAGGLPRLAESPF
GLP-1R_TEV_FLAG C-tail, sequence (P43220 24-431 limits assumed): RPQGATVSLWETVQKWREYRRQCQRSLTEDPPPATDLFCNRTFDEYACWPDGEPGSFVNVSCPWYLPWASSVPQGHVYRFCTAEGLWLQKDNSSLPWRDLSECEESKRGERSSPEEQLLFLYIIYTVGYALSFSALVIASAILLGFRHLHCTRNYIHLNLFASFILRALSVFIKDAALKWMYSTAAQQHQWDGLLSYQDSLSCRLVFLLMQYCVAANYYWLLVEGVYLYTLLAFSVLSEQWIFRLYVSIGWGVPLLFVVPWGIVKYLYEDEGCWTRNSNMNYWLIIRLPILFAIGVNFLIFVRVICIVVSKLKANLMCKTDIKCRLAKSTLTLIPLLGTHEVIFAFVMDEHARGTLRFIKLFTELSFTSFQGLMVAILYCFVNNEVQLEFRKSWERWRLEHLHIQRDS
GLP-1R 3S→A (S442A/S444A/S445A), sequence (P43220 24-463 S442A/S444A/S445A): as the sequence (P43220 24-463 S444A) above, with S419A, S422A counted along it
GLP-1R WT, sequence (P43220 24-463): as the sequence (P43220 24-463 S444A) above, with A421S counted along it
GLP-1R S445A, sequence (P43220 24-463 S445A): as the sequence (P43220 24-463 S444A) above, with A421S, S422A counted along it
GLP-1R S442A, sequence (P43220 24-463 S442A): as the sequence (P43220 24-463 S444A) above, with S419A, A421S counted along it

For `CSCC[C@H](NC(=O)[C@H](CC(C)C)NC(=O)[C@H](Cc1c[nH]c2ccccc12)NC(=O)[C@H](CCC(N)=O)NC(=O)[C@@H](NC(=O)[C@H](Cc1ccccc1)NC(=O)[C@H](CC(=O)O)NC(=O)[C@H](CCC(N)=O)NC(=O)[C@H](C)NC(=O)[C@H](CCCNC(=N)N)NC(=O)[C@H](CCCNC(=N)N)NC(=O)[C@H](CO)NC(=O)[C@H](CC(=O)O)NC(=O)[C@H](CC(C)C)NC(=O)[C@H](Cc1ccc(O)cc1)NC(=O)[C@H](CCCCN)NC(=O)[C@H](CO)NC(=O)[C@H](CCCCNC(=O)CCOCCOCCOCCOCCNC(=O)CCCC[C@@H]1SC[C@@H]2NC(=O)N[C@@H]21)NC(=O)[C@H](CC(=O)O)NC(=O)[C@H](CO)NC(=O)[C@@H](NC(=O)[C@@H](O)Cc1ccccc1)[C@@H](C)O)C(C)C)C(=O)N[C@@H](CC(=O)O)C(=O)N[C@H](C(N)=O)[C@@H](C)O` [Biotin-GCGR antagonist] (H-[PhLac]TSDK([PEG4-Biotin])SKYLDSRRAQDFVQWLMDT-NH2), the Emax at GCGR [1] amounted to 120%.

On to `CC[C@H](C)[C@H](NC(=O)[C@H](Cc1ccccc1)NC(=O)[C@@H](NC(=O)CNC(=O)[C@H](CCC(N)=O)NC(=O)C(C)(C)NC(=O)[C@@H](N)Cc1c[nH]cn1)[C@@H](C)O)C(=O)N[C@@H](CO)C(=O)N[C@@H](CC(=O)O)C(=O)N[C@@H](CCCCNC(=O)CCOCCOCCOCCOCCNC(=O)CCCC[C@@H]1SC[C@@H]2NC(=O)N[C@@H]21)C(=O)N[C@@H](CO)C(=O)N[C@@H](CCCCN)C(=O)N[C@@H](Cc1ccc(O)cc1)C(=O)N[C@@H](CC(C)C)C(=O)N[C@@H](CC(=O)O)C(=O)NC(C)(C)C(=O)N[C@@H](CCCNC(=N)N)C(=O)N[C@@H](C)C(=O)N[C@@H](C)C(=O)N[C@@H](CCC(N)=O)C(=O)N[C@@H](CC(=O)O)C(=O)N[C@@H](Cc1ccccc1)C(=O)N[C@H](C(=O)N[C@@H](CCC(N)=O)C(=O)N[C@@H](Cc1c[nH]c2ccccc12)C(=O)N[C@@H](CC(C)C)C(=O)N[C@@H](CCSC)C(=O)N[C@@H](CC(=O)O)C(=O)N[C@H](C(=O)O)[C@@H](C)O)C(C)C` [Biotin-GCG], for which the Emax at GCGR [2] came to 124%.

On to `CCCCCCCCCCCCCCCC(=O)N[C@@H](CCC(=O)N[C@@H](CCC(=O)NCCCC[C@H](NC(=O)[C@H](CC(=O)O)NC(=O)[C@H](CO)NC(=O)[C@@H](NC(=O)[C@@H](O)Cc1ccccc1)[C@@H](C)O)C(=O)N[C@@H](CO)C(=O)N[C@@H](CCCCN)C(=O)N[C@@H](Cc1ccc(O)cc1)C(=O)N[C@@H](CC(C)C)C(=O)N[C@@H](CC(=O)O)C(=O)N[C@@H](CO)C(=O)N[C@@H](CCCNC(=N)N)C(=O)N[C@@H](CCCNC(=N)N)C(=O)N[C@@H](C)C(=O)N[C@@H](CCC(N)=O)C(=O)N[C@@H](CC(=O)O)C(=O)N[C@@H](Cc1ccccc1)C(=O)N[C@H](C(=O)N[C@@H](CCC(N)=O)C(=O)N[C@@H](Cc1c[nH]c2ccccc12)C(=O)N[C@@H](CC(C)C)C(=O)N[C@@H](CCSC)C(=O)N[C@@H](CC(=O)O)C(=O)N[C@H](C(N)=O)[C@@H](C)O)C(C)C)C(=O)O)C(=O)O` [GCGR Antagonist] (H-[PhLac]TSDK([γGlu-γGlu-Palmitoyl])SKYLDSRRAQDFVQWLMDT-NH2), for which the Emax at GCGR [1] came to 116%.

Consider `N#Cc1ccc(COc2cccc(C3CCN(Cc4nc5ccc(C(=O)O)cc5n4C[C@@H]4CCO4)CC3)n2)c(F)c1` [danuglipron], for which the Emax amounted to 116% at GLP-1R S442A; 130% in test [3]; 99% on GLP-1R WT; 123% at GLP-1R S445A; 127% at GLP-1R S444A. At GLP-1R_TEV_FLAG C-tail, the “increase in the percentage of phosphorylated GLP-1R proteoforms” value worked out at 14.5%.

In general, Emax refers to the maximal effect, on the per cent scale that the assay sets.
